Data: patent US7270833B2, “Cardioplegic solution” (Jolife AB, priority 2000, dated 2007)

Legend:
[1] = test system: pigs with electrically induced ventricular fibrillation; assay: Internal cardiopulmonary resuscitation by continuous left ventricle infusion of potassium chloride, followed by V-A ECMO; type: in vivo
Experimental: The purpose of the experiment was to evaluate the effects of continuous potassium chloride infusion during internal CPR with a catheter inserted into the left ventricle and to investigate the need for ECMO (extracorporeal membrane oxygenation) after high dose potassium chloride treatment during CPR, to obtain return of ROSC after prolonged CPR.
The haemodynamic parameters continuously was measured and stored as mean values every 5 second. Blood gases was analyzed with a Radiometer™ ABL 555® blood gas machine. Drug administration (Addex® potassium 4 mmol/ml, Fresenius Kabi, Uppsala, Sweden. 40 mg/ml papaverin, NM Pharma, Stockholm, Sweden.) during CPR was given according a specific protocol.
The following data parameters were measured and stored as mean values every 5 seconds throughout the experiment:
ECG, arterial pressure (SAP/MAP/DAP), central venous pressure (CVP), coronary perfusion pressure (CPP), carotid flow (CF), temperature, urine production (every 15 min), and blood gases.
The blood gas (Radiometer™, ABL 555®) data parameter were measured and stored intermittently or written down by hand throughout the experiment.
Electrically ventricular fibrillation was induced electrically in healthy test pigs (25-80 kg in body weight) at normothermic conditions (a body temperature of 38° C.). After 90 seconds of untreated ventricular fibrillation internal heart massage started manually and continued for 60 min. At the same time a booster injection of 10 ml potassium (Addex® potassium 4 mmol/ml, Fresenius Kabi, Uppsala, Sweden) and 3 ml papaverin sulfate (Papaverin 40 mg/ml, NM Pharma, Stockholm, Sweden) was given. Directly after a potassium infusion (Addex® potassium 4 mmol/ml, Fresenius Kabi, Uppsala, Sweden) was started (100 ml/h for 20 min, 50 ml/h for 20 min, 20 ml/h for 20 min). […] After 60 minutes of resuscitation V-A (venoarterial) ECMO was established and by ultrafiltration the serum potassium ion concentration was reduced towards normal levels.
After the 6-hour test period, the animal was put to death with a euthanasia solution.

[2] = test system: pigs with ventricular fibrillation; assay: Potassium chloride cardioplegia during heart compressions in pigs with induced ventricular fibrillation; type: in vivo, pig; conditions: for development of stone heart: pigs, induced ventricular fibrillation, continuous infusion of potassium chloride, heart compressions for 1 hour
Experimental: Due to the access to the new external chest compression machine, “Lucas”, we have run extensive experiments in pigs. Until now we have run experiments in 5 years and used over 800 pigs. This new machine is much more efficient than manual compression of the chest. About 30% of the pigs with ventricular fibrillation survived 1 hour of external heart massage with the machine in normothermia. With manual compression no pigs survived 15 minutes. […] We noticed that this started to happen after 15 minutes.
The idea then came up that if cardioplegia is induced to the heart during heart arrest, it would be possible to eliminate this stone heart condition and make 100% of the hearts survive 60 minutes of heart compression. In clinical heart surgery we routinely use potassium to accomplish depolarisation and cardioplegia. We induced ventricular fibrillation in pigs and then induced cardioplegia in the form of potassium chloride into a central venous needle or even directly into the left ventricle, thereby inducing cardioplegia. By a continuous infusion of potassium chloride we kept the heart in a cardioplegic condition. […] After 60 minutes we cannulated the pig in the femoral artery and vein and established an extracorporeal membrane oxygenation (ECMO). […] When cardioplegia is induced in a heart at normotermia, 90% of the need for oxygen is eliminated, and the heart is arrested in a relaxed condition. Such a heart is very easy to perform external or internal heart massage on.

[Cl-].[K+] [potassium chloride]
Event: heart beating ([1]; 25 kg Swedish domestic pig, Exp. Time 2:22:01, after stop K at 2:18:38, on bypass): spontaneously | Event: urine production ([1]; 25 kg Swedish domestic pig, Exp. Time 4:29:33, after off bypass at 3:42:43): normal urine | heart rhythm / ROSC ([1]; after 1 h of CPR in combination with potassium administration followed by ECMO, FIG. 1): ROSC came into effect | return of spontaneous heart beat after potassium chloride washed away by filtration ([2]; after 60 minutes of heart compressions, ECMO via femoral artery and vein): the heart started to beat spontaneously again | recovery of hearts after heart massage ([2]; experimental animal with acute ventricular fibrillation, after one hour of heart massage): possible to recover all hearts | development of stone heart [2]: without the development of stone heart | development of stone heart ([2]; listed as potassium): eliminates the development of stone heart
